# “And” between values parts separate entries of the source, which are not always exact repeats. Equal values may be shown once.
# Key:
# Format in all cases: cell-based, human
# β2AR = test: Endosomal BRET assay of isoproterenol-mediated β2AR internalization
# Source text: We performed a HT campaign in HEK293 cells using the bystander endosomal BRET sensor, which consists of a Renilla luciferase (RlucII)-tagged AT1R and an acceptor renilla GFP (rGFP) anchored to endosomes through an Endofin-FYVE (Endo-rGFP) domain[12]. AngII-mediated trafficking of AT1R to endosomes was screened against commercial libraries of ~115,000 small molecules (Fig. 1a and Supplementary Data 1). Because our assay is based on luminescence and fluorescence, we excluded 6610 compounds that quenched more than 50% of the luciferase or GFP signals. After excluding 5 AT1R antagonists, we conserved hit compounds blocking by more than 40%, as well as those potentiating by more than 100% receptor internalization. From this collection of 943 compounds, a second validation on AT1R internalization was performed using the same BRET assay, as well as on the agonist-mediated B2R internalization, this time using B2R-RlucII and Endo-rGFP. Only compounds that were revalidated on AT1R and affected B2R endocytosis were kept, which included forty hits (20 potentiators and 20 inhibitors) (Fig. 1b and Supplementary Data 2). We focused on inhibitors that were commercially available at the beginning of the project and tested their cell toxicity by microscopy, looking at cells expressing B2R tagged with YFP, which highlights cell contours and potential morphological changes, such as rounding up of cells following treatment with 50 μM of the compounds that may have indicated cell death. None of the inhibitors tested caused abnormal cell morphological changes when cells were treated with compounds as compared to DMSO-treated cells. Inhibitors were also assessed in terms of structure novelty, derivatization potential, and commercial availability of analogs (within 95–98% similarity from Tanimoto metric, Sci-Finder, https://scifinder-n.cas.org), for structure-activity relationship studies (SAR). They were scored 1–5, from best to worst. We excluded compounds with potential nucleophilic reactivity (e.g., Michael addition: compounds 7, 26, and 27), those reported to have biological activities (compounds 8, 20, 25, 30, and 35) and/or showing autofluorescence (compound 26). Compound 19 ranked high, but only had one other molecule with a similar structure available. Although other molecules could be interesting in their own rights as endocytosis inhibitors (e.g., compounds 1, 9, 11, 12, 13, 24, 31, and 37), we focused on compound 21 (Fig. 1c) because not only did it rank high in our analysis, but it was also the only compound with substantially more similar analogs commercially available at the time of these investigations. In the screen and the follow-up validation assay, 21 inhibited more than 50% AT1R internalization and more than 65% B2R internalization (Supplementary Data 2). […] Because β-arrestins are critically involved in GPCR endocytosis and trafficking in cells, we assessed 21’s effects on β-arrestins’ recruitment to AT1R and B2R at the PM using a BRET assay, as well as their trafficking into endosomes by microscopy.
# HEK293SL cells were seeded at a density of 7.5 × 10^5 cells per 100-mm dish and 24 h later, transiently transfected as such. For receptor internalization experiments, cells were transfected with 0.12 μg AT1R-RlucII, B2R-RlucII, or β2AR-RlucII and 0.48 μg of either rGFP-CAAX (to assess removal from the PM) or rGFP-FYVE (to assess accumulation in the endosomes). For β-arrestin recruitment assays, cells were transfected with 0.48 μg of receptor-YFP along with 0.12 μg of β-arrestin-RlucII. For β-arrestin/AP-2 binding experiments, cells were transfected with 1 μg Flag-AT1R, 1 μg β2-Adaptin-YFP, and 0.12 μg β-arrestin2-RlucII. For G protein activation, cells were transfected with 3 μg of sp-Flag-AT1R along with either 4.5 μg of the Gαq-polycistronic BRET sensor or 0.24 μg of the Gαi3-RlucII and 0.6 μg of GFP10-Gγ2 and Gβ1 sensors or 0.12 μg PKN-RBD-RlucII and 0.48 μg of rGFP-CAAX. […]
# [1] = tested on: ERK1/2 activation by β2AR; test: Western blot of β2AR-mediated ERK1/2 phosphorylation; conditions: for p-ERK1/2 over ERK1/2, normalized to basal (0 min), b2AR: Comp 21 50 μM, individual experiments
# Experimental: HEK293SL cells (10^5 cells per well) were seeded in a poly-L-lysine-coated six-well plate and transiently transfected with 3 μg Flag-AT1R, HA-B2R or HA-β2AR and/or 500 ng Flag-MEK1-WT, Flag-MEK1-DD, Flag-BRAF-WT, Flag-BRAF-V600E, Flag-K-Ras-WT, Flag-K-Ras-G12V, HA-ARF6-WT, or HA-ARF6-T27N. Gαq/11 KO and βarr1/2 KO cells were seeded onto 100 mm dishes at a density of 10^6 cells per dish. Next day, cells were transfected with 3 μg AT1R alone or along with 500 ng of β-arrestin2 using PEI. After 18 h of transfection, cells were detached and re-seeded onto poly-L-lysine coated 12-well plates (~1.5–2 × 10^5cells/well) for subsequent experiments. Forty-eight hours post transfection, in a 37 °C water bath, cells were serum-starved for 30 min, pretreated with DMSO (0.1%) or compound 21/Rasarfin (50 µM or at indicated concentrations) for 30 min, then stimulated or not with the indicated ligand [AngII (1 µM), BK (1 µM), Iso (10 µM) or EGF (100 ng/ml)] at indicated times. Cells were put on ice, washed with PBS and solubilized in 2x laemmli buffer (250 mM Tris–HCl pH 6.8, 2% SDS (w/v), 10% glycerol (v/v), 0.01% bromophenol blue (w/v) and 5% β-mercaptoethanol (v/v)) by heating at 65 °C for 15 min. Lysates were resolved on 10 or 14% SDS-PAGE, transferred to nitrocellulose membranes and immunoblotted for p-ERK1/2, ERK1/2, p-Akt, Akt, HA, Myc, β-actin or FLAG. ImageLab 5.2 software was used to quantify the digital blots as fold of the phosphorylated protein over total protein, which were then normalized as indicated in the figure legends. Uncropped immunoblots are provided in the Source Data file.
# ERK1/2 activation by V2R = test: Western blot of V2R-mediated ERK1/2 activation (rebuttal Figure 1); conditions: Barbadin 100 µM
Compound,"IC50 (β2AR; Homo sapiens, read-out: IC50 for inhibition of isoproterenol-mediated β2AR internalization into endosomes)","β2AR internalization into endosomes, ligand-promoted BRET (Mean) (β2AR; Log [Comp21] (M) -4.3)","β2AR internalization into endosomes, ligand-promoted BRET (Mean) (β2AR; Log [Comp21] (M) -4.6)","β2AR internalization into endosomes, ligand-promoted BRET (Mean) (β2AR; Log [Comp21] (M) -5)","β2AR internalization into endosomes, ligand-promoted BRET (Mean) (β2AR; Log [Comp21] (M) -5.3)","β2AR internalization into endosomes, ligand-promoted BRET (Mean) (β2AR; Log [Comp 21] (M) -6)","β2AR internalization into endosomes, ligand-promoted BRET (Mean) (β2AR; Log [Comp21] (M) -6.3)","β2AR internalization into endosomes, ligand-promoted BRET (Mean) (β2AR; Log [Comp 21] (M) -7)",MAPK response promoted by β2AR ([1]; 50 μM),"p-ERK1/2 over ERK1/2, normalized to basal (0 min), b2AR ([1]; time 0 min)","p-ERK1/2 over ERK1/2, normalized to basal (0 min), b2AR ([1]; time 2 min)","p-ERK1/2 over ERK1/2, normalized to basal (0 min), b2AR ([1]; time 5 min)",V2R-mediated ERK1/2 phosphorylation in HEK293 cells (ERK1/2 activation by V2R)
CC(C)C(=O)N1CCN(c2ccc(NC(=O)c3cc4ccccc4o3)cc2Cl)CC1 [Compound 21],15 µM,36.2133 percent compared to DMSO,48.1993 percent compared to DMSO,64.3705 percent compared to DMSO,89.3672 percent compared to DMSO,95.9498 percent compared to DMSO,95.3626 percent compared to DMSO,95.4832 percent compared to DMSO,blocked MAPK responses,1,1.344 and 1.8469 and 1.974 and 1.462,1.8675 and 1.745 and 1.249 and 1.487,–
"Nn1cnc2scc(-c3ccc(Cc4ccccc4)cc3)c2c1=O [Barbadin, reference compound]",–,–,–,–,–,–,–,–,–,–,–,–,potent inhibition

# — article PMC8333425, “Discovery of a dual Ras and ARF6 inhibitor from a GPCR endocytosis screen” (Nature Communications, 2021)
